Experimental data as given in patent US4831027A, “Imidazo-benzoxazinones, the preparation thereof and pharmaceutical compositions containing these compounds” (Dr. Karl Thomae GmbH, priority 1986, dated 1989).

Tested on: anaesthetized cats
Assay: Determination of the effect on blood pressure and positive inotropic activity in anaesthetized cats
Assay type: in vivo
Settings: 0.3 mg/kg i.v., average of 2 cats; for Diastolic blood pressure change: anaesthetized cats (sodium pentobarbital), pressure in aorta abdominalis; for Duration of effect (half life) / Increase of dp/dt (contractility parameter dp/dtmax): anaesthetized cats; for Increase of dp/dt (contractility parameter dp/dtmax): pressure in left ventricle, catheter-tip manometer
Protocol: 1. Determination of the effect on blood pressure and positive inotropic activity in anaesthetized cats: The tests were carried out on cats which had been anaesthetized with sodium pentobarbital (40 mg/kg i.p. and 8 mg/kg/hour i.v.). The animals breathed spontaneously. The arterial blood pressure was measured in the aorta abdominalis using a Statham pressure transducer (P 23 Dc). To determine the positive inotropic activity the pressure in the left ventricle was measured using a catheter-tip manometer (Millar PC-350 A). From this, the contractility parameter dp/dtmax was obtained using an analogue differentiator. The test substance was injected into a vena femoralis. Polydiol 200 was used as solvent. The substance was tested on 2 cats, dosage 0.3 mg/kg i.v.

CC1(C)OC(=O)Nc2cc3nc(-c4ccncc4)[nH]c3cc21 [A, 8,8-dimethyl-2-(4-pyridyl)-8-hydro-(5H)-imidazo[5,4-g][3,1]benzoxazin-6-one]
Diastolic blood pressure change: 0 mmHg | Duration of effect (half life): 18 min | Increase of dp/dt (contractility parameter dp/dtmax): +43%

CCN1C(=O)OC(C)(C)c2cc3[nH]c(-c4ccncc4)nc3cc21 [B, 5-ethyl-8,8-dimethyl-2-(4-pyridyl)-8-hydro-(5H)imidazo[5,4-g][3,1]benzoxazin-6-one]
Diastolic blood pressure change: -21 mmHg | Duration of effect (half life): 16 min | Increase of dp/dt (contractility parameter dp/dtmax): +52%

CCCc1nc2cc3c(cc2[nH]1)C(C)(C)OC(=O)N3 [C, 8,8-dimethyl-2-n-propyl-8-hydro-(5H)-imidazo[5,4-g][3,1]benzoxazin-6-one]
Diastolic blood pressure change: -11 mmHg | Duration of effect (half life): 11 min | Increase of dp/dt (contractility parameter dp/dtmax): +31%

CCN1C(=O)OC(C)(C)c2cc3[nH]c(-c4ccco4)nc3cc21 [D, 5-ethyl-8,8-dimethyl-2-(2-furyl)-8-hydro-(5H)imidazo[5,4-g][3,1]benzoxazin-6-one]
Diastolic blood pressure change: -37 mmHg | Duration of effect (half life): 4 min | Increase of dp/dt (contractility parameter dp/dtmax): +41%

CC1(C)OC(=O)Nc2cc3nc(-c4ccco4)[nH]c3cc21 [E, 8,8-dimethyl-2-(2-furyl)-8-hydro-(5H)-imidazo[5,4-g][3,1]benzoxazin-6-one]
Diastolic blood pressure change: -16 mmHg | Duration of effect (half life): 7 min | Increase of dp/dt (contractility parameter dp/dtmax): +31%

CC1(C)OC(=O)Nc2cc3nc(-c4cccs4)[nH]c3cc21 [F, 8,8-dimethyl-2-(2-thienyl)-8-hydro-(5H)-imidazo[5,4-g][3,1]benzoxazin-6-one]
Diastolic blood pressure change: -24 mmHg | Duration of effect (half life): 10 min | Increase of dp/dt (contractility parameter dp/dtmax): +28%
